Laboratory results published in the supplement of paper PMC8967900.

Key:
Assay in all cases: selective drug sensitivity score (sDSS, relative to normal bone marrow) (sDSS (score)); higher = more potent and effective on the cell line relative to normal bone marrow cells
Details in all cases: 72 h
KASUMI-9 = test system: KASUMI-9
TMD5 = test system: TMD5
COG-LL-317 = test system: COG-LL-317
PF-382 = test system: PF-382
ALL-SIL = test system: ALL-SIL
RPMI-8402 = test system: RPMI-8402
CCRF-CEM = test system: CCRF-CEM
COG-LL-332h = test system: COG-LL-332h
P30-OHKUBO = test system: P30-OHKUBO
CCRF-HSB2 = test system: CCRF-HSB2
COG-LL-402h = test system: COG-LL-402h
NALM-6 = test system: NALM-6
P12-ICHIKAWA = test system: P12-ICHIKAWA
LC4-1 = test system: LC4-1
JURKAT = test system: JURKAT
COG-LL-394h = test system: COG-LL-394h
KARPAS-45 = test system: KARPAS-45
COG-LL-355h = test system: COG-LL-355h
PEER = test system: PEER
TANOUE = test system: TANOUE
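Also: ALL cell lines in 384-well plates, five doses spanning 10,000-fold, each plate scaled between vehicle and 100 µmol/L benzalkonium chloride controls, sDSS an adapted area-under-curve metric.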

| Compound | selective drug sensitivity score (KASUMI-9) | selective drug sensitivity score (TMD5) | selective drug sensitivity score (COG-LL-317) | selective drug sensitivity score (PF-382) | selective drug sensitivity score (ALL-SIL) | selective drug sensitivity score (RPMI-8402) | selective drug sensitivity score (CCRF-CEM) | selective drug sensitivity score (COG-LL-332h) | selective drug sensitivity score (P30-OHKUBO) | selective drug sensitivity score (CCRF-HSB2) | selective drug sensitivity score (COG-LL-402h) | selective drug sensitivity score (NALM-6) | selective drug sensitivity score (P12-ICHIKAWA) | selective drug sensitivity score (LC4-1) | selective drug sensitivity score (JURKAT) | selective drug sensitivity score (COG-LL-394h) | selective drug sensitivity score (KARPAS-45) | selective drug sensitivity score (COG-LL-355h) | selective drug sensitivity score (PEER) | selective drug sensitivity score (TANOUE) |
| --- | --- | --- | --- | --- | --- | --- | --- | --- | --- | --- | --- | --- | --- | --- | --- | --- | --- | --- | --- | --- |
| CC[C@H](CO)Nc1nc(NCc2ccccc2)c2ncn(C(C)C)c2n1 [Seliciclib] (top concentration 10000 nM) | -0.44 | -1.04 | 3.56 | -1.04 | 3.06 | -0.54 | 2.06 | 2.16 | -0.14 | 0.56 | -1.04 | -1.04 | -0.94 | 1.06 | -0.84 | -1.04 | 1.96 | 2.46 | -0.24 | -1.04 |
| CN1CCN(C(=O)c2ccc3cc(CCNc4ncnc5ccc(C#N)cc45)ccc3c2)CC1 [Senexin_B] (top concentration 1000 nM) | -0.6 | -0.6 | 0.5 | -0.1 | -0.6 | 1.1 | 1.7 | 0.6 | 0.4 | 3.8 | -0.4 | 0.9 | 0.4 | -0.6 | 3.1 | 1 | 1.4 | -0.6 | 1.8 | 1.1 |
| Clc1ccccc1C(c1ccccc1)(c1ccccc1)n1cccn1 [TRAM-34] (top concentration 1000 nM) | 2.52 | -0.08 | -0.08 | -0.08 | -0.08 | -0.08 | -0.08 | -0.08 | 1.12 | -0.08 | -0.08 | -0.08 | -0.08 | -0.08 | -0.08 | -0.08 | -0.08 | -0.08 | -0.08 | -0.08 |
| C=CC[C@@H]1/C=C(\C)C[C@H](C)C[C@H](OC)[C@H]2O[C@@](O)(C(=O)C(=O)N3CCCC[C@H]3C(=O)O[C@H](/C(C)=C/[C@@H]3CC[C@@H](O)[C@H](OC)C3)[C@H](C)[C@@H](O)CC1=O)[C@H](C)C[C@@H]2OC [Tacrolimus] (top concentration 10000 nM) | 12.1 | 13.5 | 0.68 | 0.78 | 1.08 | 1.38 | 2.78 | 0.18 | 16.1 | 3.38 | -0.72 | 0.98 | 1.58 | 21.1 | 1.78 | 3.08 | 2.18 | 3.18 | 1.38 | -0.72 |
| CCN(c1cc(-c2ccc(CN3CCOCC3)cc2)cc(C(=O)NCc2c(C)cc(C)[nH]c2=O)c1C)C1CCOCC1 [Tazemetostat] (top concentration 10000 nM) | 0.92 | -0.08 | -0.08 | -0.08 | 0.12 | 0.22 | 1.02 | -0.08 | 0.42 | 1.42 | -0.08 | -0.08 | 0.02 | -0.08 | 0.02 | -0.08 | 1.32 | -0.08 | 0.32 | -0.08 |
| COc1cc2c(Nc3ccc(Cl)c(Cl)c3F)ncnc2cc1OC[C@@H]1C[C@@H]2CN(C)C[C@@H]2C1 [Tesevatinib] (top concentration 1000 nM) | 0.74 | 3.24 | 0.04 | -1.06 | -0.26 | 0.44 | 1.34 | -0.86 | 0.94 | 3.44 | 1.64 | -0.16 | -0.46 | -1.16 | -0.16 | -0.36 | 0.74 | 2.04 | 1.84 | -1.36 |
| O=C1CCC(N2C(=O)c3ccccc3C2=O)C(=O)N1 (stereo not given) [Thalidomide] (top concentration 10000 nM) | -0.14 | -0.14 | -0.14 | -0.14 | -0.14 | -0.14 | -0.14 | -0.14 | -0.14 | -0.14 | -0.14 | -0.14 | -0.14 | -0.14 | -0.14 | -0.14 | -0.14 | 0.16 | -0.14 | -0.14 |
| O=C1NC(=O)[C@@H](c2cn3c4c(cccc24)CCC3)[C@@H]1c1c[nH]c2ccccc12 [Tivantinib] (top concentration 1000 nM) | 5.38 | 5.38 | 3.68 | 2.78 | 7.18 | 3.68 | 3.98 | 3.48 | 6.58 | 3.58 | 2.38 | 5.08 | 3.68 | 4.08 | 3.98 | -0.42 | 4.08 | 0.18 | 4.38 | -1.32 |
